According to the CheMixHub viscosity set:

Test: xn = mol fraction of the nth substance listed

N#Cc1ccccc1 + CO
Settings	viscosity [mPa·s]
303 K, 100 kPa, x1 = 0.0991	0.6312
303 K, 100 kPa, x1 = 0.2405	0.7232
303 K, 100 kPa, x1 = 0.3585	0.7886
303 K, 100 kPa, x1 = 0.4974	0.8399
303 K, 100 kPa, x1 = 0.6272	0.9121
303 K, 100 kPa, x1 = 0.7094	0.9522
303 K, 100 kPa, x1 = 0.8023	0.9912
303 K, 100 kPa, x1 = 0.897	1.035
303.15 K, 101.33 kPa, x1 = 0.0854	0.562
303.15 K, 101.33 kPa, x1 = 0.1569	0.603
303.15 K, 101.33 kPa, x1 = 0.2408	0.652
303.15 K, 101.33 kPa, x1 = 0.4349	0.763
303.15 K, 101.33 kPa, x1 = 0.5335	0.82
303.15 K, 101.33 kPa, x1 = 0.6304	0.875
303.15 K, 101.33 kPa, x1 = 0.7155	0.926
303.15 K, 101.33 kPa, x1 = 0.8439	1.011
303.15 K, 101.33 kPa, x1 = 0.9059	1.061
308 K, 100 kPa, x1 = 0.0991	0.5712
308 K, 100 kPa, x1 = 0.2405	0.6523
308 K, 100 kPa, x1 = 0.3585	0.7123
308 K, 100 kPa, x1 = 0.4974	0.7652
308 K, 100 kPa, x1 = 0.6272	0.8012
308 K, 100 kPa, x1 = 0.7094	0.8307
308 K, 100 kPa, x1 = 0.8023	0.8716
308 K, 100 kPa, x1 = 0.897	0.9146
308.15 K, 101.33 kPa, x1 = 0.0854	0.525
308.15 K, 101.33 kPa, x1 = 0.1569	0.562
308.15 K, 101.33 kPa, x1 = 0.2408	0.608
308.15 K, 101.33 kPa, x1 = 0.4349	0.709
308.15 K, 101.33 kPa, x1 = 0.5335	0.761
308.15 K, 101.33 kPa, x1 = 0.6304	0.811
308.15 K, 101.33 kPa, x1 = 0.7155	0.859
308.15 K, 101.33 kPa, x1 = 0.8439	0.938
308.15 K, 101.33 kPa, x1 = 0.9059	0.985
313 K, 100 kPa, x1 = 0.0991	0.5056
313 K, 100 kPa, x1 = 0.2405	0.5595
313 K, 100 kPa, x1 = 0.3585	0.6235
313 K, 100 kPa, x1 = 0.4974	0.6856
313 K, 100 kPa, x1 = 0.6272	0.7325
313 K, 100 kPa, x1 = 0.7094	0.7731
313 K, 100 kPa, x1 = 0.8023	0.8134
313 K, 100 kPa, x1 = 0.897	0.8658

CCCC[N+]1=C2CCCCCN2CCC1.c1c[n-]cn1 + O
viscosity [mPa·s], 100 kPa
Settings	x1 = 0.0298	x1 = 0.0697	x1 = 0.0991	x1 = 0.2001	x1 = 0.3002	x1 = 0.439	x1 = 0.5972	x1 = 0.7501	x1 = 0.89
293.15 K	4.316	12.27	19.53	55.65	97.57	133.7	136.6	127.6	117.4
298.15 K	3.347	9.898	15.3	39.88	66.69	88.91	91.45	86.9	80.42
303.15 K	2.838	8.133	12.48	29.5	47.22	61.57	63.37	60.13	57.19
308.15 K	2.449	6.778	9.929	22.51	34.56	44.11	45.74	43.8	41.93
313.15 K	2.138	5.738	8.244	17.58	26.15	32.54	33.55	32.34	31.79

CCOCCOCCOCCO + ClC=C(Cl)Cl
298.15 K, 101.33 kPa
Settings	viscosity [mPa·s]
x1 = 0.0053	0.54
x1 = 0.0167	0.565
x1 = 0.026	0.587
x1 = 0.0395	0.618
x1 = 0.0528	0.651
x1 = 0.0728	0.707
x1 = 0.1054	0.809
x1 = 0.1458	0.947
x1 = 0.1858	1.103
x1 = 0.2345	1.326
x1 = 0.2866	1.587
x1 = 0.3318	1.832
x1 = 0.3679	2.048
x1 = 0.4108	2.323
x1 = 0.447	2.559
x1 = 0.4818	2.796
x1 = 0.523	3.087
x1 = 0.5639	3.396
x1 = 0.6278	3.88
x1 = 0.6904	4.378
x1 = 0.7278	4.683
x1 = 0.7721	5.051
x1 = 0.8271	5.521
x1 = 0.8733	5.952
x1 = 0.9136	6.273
x1 = 0.9317	6.46
x1 = 0.9672	6.773
x2 = 0.0194	6.891
